Measured values published in paper PMC9945734 (BMC Medicine, 2023).

Test system: PC-3-KQ and PC-3-KR cells
Assay: RNA-sequencing and differential gene expression
Type: cell-based, human
Conditions: RNA-Seq, PC-3-KQ cells

In the case of `CC(=O)Oc1ccccc1C(=O)Nc1ncc([N+](=O)[O-])s1` [Nitazoxanide], the “IL21R Change (KQ-Control vs KQ-NTZ)” value is reported as “DOWN”, the “IL21R logFC (KQ-Control vs KQ-NTZ)” value is reported as -0.8899 and the “INHBA Change (KQ-Control vs KQ-NTZ)” value is reported as “DOWN”. The “INHBA logFC (KQ-Control vs KQ-NTZ)” value was -0.6293, the “INHBB Change (KQ-Control vs KQ-NTZ)” value was “DOWN” and the “INHBB logFC (KQ-Control vs KQ-NTZ)” value was -0.6733. For the same molecule, the “KIAA1755 Change (KQ-Control vs KQ-NTZ)” value was “DOWN”, the “KIAA1755 logFC (KQ-Control vs KQ-NTZ)” value was -0.9388 and the “KLK9 Change (KQ-Control vs KQ-NTZ)” value was “DOWN”. The “KLK9 logFC (KQ-Control vs KQ-NTZ)” value was -1.8809, the “LGALS12 Change (KQ-Control vs KQ-NTZ)” value was “DOWN” and the “LGALS12 logFC (KQ-Control vs KQ-NTZ)” value was -2.2497. For the same molecule, the “LILRB3 Change (KQ-Control vs KQ-NTZ)” value was “DOWN”, the “LILRB3 logFC (KQ-Control vs KQ-NTZ)” value was -0.8729 and the “LOC105373989 Change (KQ-Control vs KQ-NTZ)” value was “DOWN”. The “LOC105373989 logFC (KQ-Control vs KQ-NTZ)” value was -0.7405, the “LOC105377805 Change (KQ-Control vs KQ-NTZ)” value was “DOWN” and the “LOC105377805 logFC (KQ-Control vs KQ-NTZ)” value was -0.9959. For the same molecule, the “LOC107987158 Change (KQ-Control vs KQ-NTZ)” value was “DOWN”, the “LOC107987158 logFC (KQ-Control vs KQ-NTZ)” value was -1.1348 and the “LONRF2 Change (KQ-Control vs KQ-NTZ)” value was “DOWN”. The “LONRF2 logFC (KQ-Control vs KQ-NTZ)” value was -0.9823, the “LTB Change (KQ-Control vs KQ-NTZ)” value was “DOWN” and the “LTB logFC (KQ-Control vs KQ-NTZ)” value was -0.7686. The “LY6K Change (KQ-Control vs KQ-NTZ)” value was “DOWN”, the “LY6K logFC (KQ-Control vs KQ-NTZ)” value was -0.6327 and the “MAP7D3 Change (KQ-Control vs KQ-NTZ)” value was “DOWN”. For the same molecule, the “MAP7D3 logFC (KQ-Control vs KQ-NTZ)” value was -0.8315, the “MCM4 Change (KQ-Control vs KQ-NTZ)” value was “DOWN” and the “MCM4 logFC (KQ-Control vs KQ-NTZ)” value was -0.8431. For the same molecule, the “MEOX1 Change (KQ-Control vs KQ-NTZ)” value was “DOWN”, the “MEOX1 logFC (KQ-Control vs KQ-NTZ)” value was -0.6507 and the “MMP9 Change (KQ-Control vs KQ-NTZ)” value was “DOWN”. The “MMP9 logFC (KQ-Control vs KQ-NTZ)” value was -0.7252, the “MNX1 Change (KQ-Control vs KQ-NTZ)” value was “DOWN” and the “MNX1 logFC (KQ-Control vs KQ-NTZ)” value was -0.604. The “MSMP Change (KQ-Control vs KQ-NTZ)” value was “DOWN”, the “MSMP logFC (KQ-Control vs KQ-NTZ)” value was -1.1495 and the “MYBL2 Change (KQ-Control vs KQ-NTZ)” value was “DOWN”. The “MYBL2 logFC (KQ-Control vs KQ-NTZ)” value was -0.7249, the “MYH7B Change (KQ-Control vs KQ-NTZ)” value was “DOWN” and the “MYH7B logFC (KQ-Control vs KQ-NTZ)” value was -0.9453. The “NKD1 Change (KQ-Control vs KQ-NTZ)” value was “DOWN”, the “NKD1 logFC (KQ-Control vs KQ-NTZ)” value was -0.7476 and the “NRK Change (KQ-Control vs KQ-NTZ)” value was “DOWN”. The “NRK logFC (KQ-Control vs KQ-NTZ)” value was -1.1538, the “NTF4 Change (KQ-Control vs KQ-NTZ)” value was “DOWN” and the “NTF4 logFC (KQ-Control vs KQ-NTZ)” value was -0.9396. The “PADI3 Change (KQ-Control vs KQ-NTZ)” value was “DOWN”, the “PADI3 logFC (KQ-Control vs KQ-NTZ)” value was -0.9445 and the “PCDH18 Change (KQ-Control vs KQ-NTZ)” value was “DOWN”. For the same molecule, the “PCDH18 logFC (KQ-Control vs KQ-NTZ)” value was -1.1702, the “PEG10 Change (KQ-Control vs KQ-NTZ)” value was “DOWN” and the “PEG10 logFC (KQ-Control vs KQ-NTZ)” value was -0.7533. For the same molecule, the “PFKFB1 Change (KQ-Control vs KQ-NTZ)” value was “DOWN”, the “PFKFB1 logFC (KQ-Control vs KQ-NTZ)” value was -0.9123 and the “PGAM4 Change (KQ-Control vs KQ-NTZ)” value was “DOWN”. For the same molecule, the “PGAM4 logFC (KQ-Control vs KQ-NTZ)” value was -0.6254, the “PHACTR3 Change (KQ-Control vs KQ-NTZ)” value was “DOWN” and the “PHACTR3 logFC (KQ-Control vs KQ-NTZ)” value was -1.8948. For the same molecule, the “PHOSPHO2 Change (KQ-Control vs KQ-NTZ)” value was “DOWN”, the “PHOSPHO2 logFC (KQ-Control vs KQ-NTZ)” value was -0.6401 and the “PIANP Change (KQ-Control vs KQ-NTZ)” value was “DOWN”. The “PIANP logFC (KQ-Control vs KQ-NTZ)” value was -1.6896, the “PRKDC Change (KQ-Control vs KQ-NTZ)” value was “DOWN” and the “PRKDC logFC (KQ-Control vs KQ-NTZ)” value was -0.6126. The “PRR16 Change (KQ-Control vs KQ-NTZ)” value was “DOWN”, the “PRR16 logFC (KQ-Control vs KQ-NTZ)” value was -0.5996 and the “PRR29 Change (KQ-Control vs KQ-NTZ)” value was “DOWN”. The “PRR29 logFC (KQ-Control vs KQ-NTZ)” value was -0.8108, the “PRRT4 Change (KQ-Control vs KQ-NTZ)” value was “DOWN” and the “PRRT4 logFC (KQ-Control vs KQ-NTZ)” value was -0.6032. For the same molecule, the “RBL1 Change (KQ-Control vs KQ-NTZ)” value was “DOWN”, the “RBL1 logFC (KQ-Control vs KQ-NTZ)” value was -0.6965 and the “RPP25 Change (KQ-Control vs KQ-NTZ)” value was “DOWN”. For the same molecule, the “RPP25 logFC (KQ-Control vs KQ-NTZ)” value was -0.6095, the “SCG2 Change (KQ-Control vs KQ-NTZ)” value was “DOWN” and the “SCG2 logFC (KQ-Control vs KQ-NTZ)” value was -0.6461. For the same molecule, the “SERPINA3 Change (KQ-Control vs KQ-NTZ)” value was “DOWN” and the “SERPINA3 logFC (KQ-Control vs KQ-NTZ)” value was -0.7667.
